{"source": "patent US20230293519A1", "about": "“INTEGRIN INHIBITORS AND USES THEREOF IN COMBINATION WITH OTHER AGENTS” (Pliant Therapeutics, Inc., priority 2021, published 2023)", "key": {"[1]": {"system": "IPF-derived human lung fibroblasts", "experiment": "LAP adhesion assay (xCELLigence cell index), lung fibroblasts", "format": "cell-based", "settings": "IPF-derived lung fibroblasts (express αvβ1)", "method": "Two latency associated peptide (LAP) adhesion binding assays were devised using primary human lung cells, including normal (healthy) human bronchial epithelial cells and human lung fibroblasts (healthy and IPF).\nHuman lung fibroblasts derived from normal and IPF lung tissue are known to express αvβ1 integrin. […] In the assay, the IPF-derived human lung fibroblasts were separately incubated with: the αvβ1-selective small molecule inhibitor; the selective antibody αvβ6 inhibitor, 3G9; and compound 5."}, "[2]": {"system": "Type I Collagen gene Col1a1 expression", "experiment": "Precision cut lung slices of mice under acute bleomycin exposure", "format": "cell-based, mouse", "settings": "slices cultured 3 days; integrin inhibitors at IC50, pan-αv and ALK5 inhibitors at 10x IC50", "method": "Mice (C57BL/6) were administered 3 U/kg of bleomycin (Teva Pharmaceuticals; North Wales, PA) on day 0 via oropharyngeal aspiration while under anesthesia. On day 14, precision cut lung slices were obtained. Following euthanization, 2% low gelling temp agarose was injected into the mouse lungs via the trachea. […] The lobes were then subjected to precision slicing to obtain samples for culture using a microtome (Compresstome VF-300-0Z, Precisionary; Greenville, NC). Individual slices were distributed in a multiwell culture plate and cultured for 3 days under control (DMSO) and test compound conditions."}, "lung Col1a1 expression [3]": {"system": "lung Col1a1 expression", "experiment": "Precision cut lung slices of mice under chronic bleomycin exposure (vs pirfenidone and nintedanib)", "format": "cell-based, mouse", "settings": "slices cultured 7 days; nintedanib and pirfenidone at 10x therapeutic concentrations", "method": "Mice (C57BL/6) were administered 3 U/kg of bleomycin (Teva Pharmaceuticals; North Wales, PA) on Day 0 and 1 U/kg of bleomycin on days 14, 28, 42 and 56 via oropharyngeal aspiration while under anesthesia. At day 70, 14 days following the final bleomycin insult, precision cut lung slices were obtained. Following euthanization, 2% low gelling temp agarose was injected into the mouse lungs via the trachea. […] The lobes were then subjected to precision slicing to obtain samples for culture using a microtome (Compresstome VF-300-0Z, Precisionary; Greenville, NC). Individual slices were distributed in a multiwell culture plate and cultured for 7 days under control (DMSO) and test compound conditions. The viability of the slices over the course of culturing was confirmed by WST-1 assay of mitochondrial activity.\nDuring the culture period, slices in the control group were treated with DMSO and slices in the test group were treated with a DMSO solution of one of: compound 5; nintedanib; pirfenidone; a combination of nintedanib and compound 5; a combination of pirfenidone and compound 5; or the small molecule ALK5 inhibitor. Compound 5 was […] effective to equal or exceed its respective IC50 values at αvβ6 and αvβ1. The small molecule ALK5 inhibitor was analyzed at 10x its reported IC50 value. Nintendanib and pirfenidone were analyzed at concentrations 10x their reported therapeutic concentrations."}, "lung Col1a1 expression [4]": {"system": "lung Col1a1 expression", "experiment": "Precision cut lung slices from human IPF explants, 3 days", "format": "cell-based", "settings": "3G9 ≥400 ng/mL, compound 5 179 nM, ALK5 inhibitor 1 µM", "text": "Explanted lung tissue was obtained from human IPF subjects and inflated with agarose as described in the preceding examples. Biopsy cores were obtained from the agarose-inflated lung tissue. The biopsy cores were subjected to precision slicing to obtain several hundred µm thick. Individual slices were distributed in a multiwell culture plate and cultured for 3 days under control (DMSO) and test compound conditions. The viability of the slices over the course of culturing was confirmed by WST-1 assay of mitochondrial activity."}, "[5]": {"experiment": "SAD and MAD first-in-human studies, plasma LC-MS/MS", "format": "in vivo", "settings": "healthy subjects", "method": "Healthy human subjects (N=85) were selected for single ascending dose (SAD) and multiple ascending dose (MAD) first-in-human studies. A solution for oral administration was prepared, containing 10 mg/mL of compound 5 in a 50:50 mixture of ORA-SWEET® SF (PERRIGO®, Allegan, Michigan) and sterile water for irrigation. Sufficient solution was administered orally to the subjects to provide between 15 mg/dose and 75 mg/dose of compound 5 in the SAD study and between 10 mg/dose and 40 mg/dose of compound 5 in the MAD study. Concentrations of compound 5 were measured in the subjects by obtaining a sample of plasma from each subject at desired intervals, and subjecting the plasma to liquid chromatography-mass spectrometry-mass spectrometry (LC-MS/MS), with quantification using a calibration curve determined from a range of solutions at standardized concentrations. The lower limit of quantitation (LLOQ) of the assay was 1 ng/mL and the calibration curve range was 1 to 500 ng/mL."}, "[6]": {"system": "patients with idiopathic pulmonary fibrosis (IPF)", "experiment": "Phase 2a trial in IPF: FVC, QLF, biomarkers", "format": "in vivo, human", "settings": "for proportion of patients with ≥10% decline in FVCpp: 12 weeks", "text": "The exploratory endpoints of the trial measured changes in forced vital capacity (FVC), HRCT-based Quantitative Lung Fibrosis score (QLF), and selected biomarkers over 3 months of treatment."}, "[7]": {"experiment": "Phase 2a trial in IPF: pharmacokinetics", "format": "in vivo, human", "settings": "IPF participants", "text": "Based on sparse sampling, overall Compound 5 pharmacokinetics and % unbound in IPF were consistent with that of previous studies. […] Overall % unbound was ~0.3 to 0.5%. Full PK curve will be predicted using population PK model to project AUC0_24 and Cmax."}, "pSmad2/Smad2": {"system": "pSmad2/Smad2", "experiment": "Alveolar pSmad2/Smad2 in BAL, prior study (80 mg and 160 mg QD)", "format": "in vivo", "settings": "p<0.0001", "text": "FIG. 12 through FIG. 36 illustrate various results from the clinical trial. […] BAL - bronchoalveolar lavage; pSmad2/Smad2 - ratio of phosphorylated Smad2 to total Smad2; QD - once daily."}}, "note": "“Also recorded” adds a separate entry of the source.", "data": [{"compound": "COCCN(CCCCc1ccc2c(n1)NCCC2)CC[C@H](Nc1ncnc2ccccc12)C(=O)O", "note": "[Compound 5, (S)-4-((2-methoxyethyl)(4-(5,6,7,8-tetrahydro-1,8-naphthyridin-2-yl)butyl)amino)-2-(quinazolin-4-ylamino)butanoic acid]", "values": [{"measurement": "inhibition of cell adhesion to LAP", "setting": "[1]", "value": "substantially inhibited"}, {"measurement": "Type I Collagen gene Col1a1 expression vs DMSO control", "setting": "[2]", "value": "decreased Type I Collagen gene Col1a1 expression substantially"}, {"measurement": "lung Col1a1 expression vs DMSO control", "setting": "lung Col1a1 expression [3]", "value": "substantial, statistically significant"}, {"measurement": "lung Col1a1 expression vs DMSO control", "setting": "lung Col1a1 expression [4]", "value": "substantial, statistically significant"}, {"measurement": "oral bioavailability and pharmacokinetics", "setting": "[5]", "value": "good oral bioavailability and pharmacokinetics"}, {"measurement": "LS Mean change from baseline in FVC at week 12, not on SoC subgroup", "setting": "[6]; 40 mg (N=5)", "value": -43.1, "unit": "mL"}, {"measurement": "Mean Percent Change in QLF extent from baseline to Week 12", "setting": "[6]; 40 mg (N=15)", "value": 3.15, "unit": "%"}, {"measurement": "LS Mean change from baseline in FVC at week 12, on SoC subgroup", "setting": "[6]; 40 mg (N=17)", "value": -58.3, "unit": "mL"}, {"measurement": "change in FVC from baseline to Week 12", "setting": "[6]; 40 mg dose group", "value": -46.1, "unit": "mL"}, {"measurement": "reduction in FVC decline relative to placebo", "setting": "[6]; 40 mg dose group", "value": 38, "unit": "%"}, {"measurement": "proportion of patients with ≥10% decline in FVCpp", "setting": "[6]; 40 mg group", "value": 18.2, "unit": "%"}, {"measurement": "LS Mean change from baseline in FVC at week 12, not on SoC subgroup", "setting": "[6]; 80 mg (N=4)", "value": "+138.1 mL"}, {"measurement": "Mean Percent Change in QLF extent from baseline to Week 12", "setting": "[6]; 80 mg (N=18)", "value": 0.70, "unit": "%"}, {"measurement": "LS Mean change from baseline in FVC at week 12, on SoC subgroup", "setting": "[6]; 80 mg (N=19)", "value": -11.9, "unit": "mL"}, {"measurement": "change in FVC from baseline to Week 12", "setting": "[6]; 80 mg dose group", "value": "+24.6 mL"}, {"measurement": "proportion of patients with > 2% increase in QLF at 12 weeks", "setting": "[6]; 80 mg group", "value": 11, "unit": "%"}, {"measurement": "proportion of patients with ≥10% decline in FVCpp", "setting": "[6]; 80 mg group", "value": 8.7, "unit": "%"}, {"measurement": "Mean Percent Change in QLF extent from baseline to Week 12", "setting": "[6]; 160 mg (N=14)", "value": 0.00, "unit": "%"}, {"measurement": "LS Mean change from baseline in FVC at week 12, not on SoC subgroup", "setting": "[6]; 160 mg (n=3)", "value": "+25.8 mL"}, {"measurement": "LS Mean change from baseline in FVC at week 12, on SoC subgroup", "setting": "[6]; 160 mg (n=19)", "value": -47.5, "unit": "mL"}, {"measurement": "change in FVC from baseline to Week 12", "setting": "[6]; 160 mg dose group", "value": -25.1, "unit": "mL"}, {"measurement": "reduction in FVC decline relative to placebo", "setting": "[6]; 160 mg dose group", "value": 66, "unit": "%"}, {"measurement": "proportion of patients with a decrease in QLF (>2% change) at 12 weeks", "setting": "[6]; 160 mg group", "value": 26.7, "unit": "%"}, {"measurement": "proportion of patients with stable QLF (-2 to 2% change) at 12 weeks", "setting": "[6]; 160 mg group", "value": 46.6, "unit": "%"}, {"measurement": "proportion of patients with ≥10% decline in FVCpp", "setting": "[6]; 160 mg group", "value": 4.5, "unit": "%"}, {"measurement": "serum PRO-C3 (type III collagen synthesis) change from baseline vs placebo", "setting": "[6]; not significant", "value": "decreased; also recorded: reduced"}, {"measurement": "serum PRO-C6 (type VI collagen synthesis) change from baseline vs placebo", "setting": "[6]; not significant", "value": "decreased; also recorded: reduced"}, {"measurement": "change in FVC from baseline to Week 12", "setting": "[6]; pooled Compound 5 groups", "value": -15.1, "unit": "mL"}, {"measurement": "dose proportionality of plasma concentrations", "setting": "[7]; 40, 80, 160 mg once daily", "value": "generally dose proportional increases; also recorded: increased approximately proportionally with dose"}, {"measurement": "fraction unbound", "setting": "[7]; human, in vivo", "value": "0.003 to 0.005"}, {"measurement": "percent change of alveolar pSmad2/Smad2 from baseline at 24 hours vs placebo", "setting": "pSmad2/Smad2", "value": "statistically significant"}]}]}
